Target: human PAD4 (hPAD4) (Homo sapiens (Human), UniProt Q9UM07)
Assay: RFMS Human PAD4 Functional Assay 1
Format: biochemical
Details: RFMS assay 1; 5 nM hPAD4, 250 μM BAEE substrate, 50 μM calcium, 37° C.
In short: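 Recombinant hPAD4 (5 nM) was preincubated with compound (top 50 μM, 0.5% DMSO) for 30 min at 37 °C, then reacted with 250 μM BAEE for 90 min at 37 °C in pH 7.5 HEPES buffer with 50 μM calcium and 5 μM TPEN. Product was derivatized with phenyl glyoxal and quantified by RapidFire MS.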

Sequence of human PAD4 (hPAD4) (Q9UM07 whole entry): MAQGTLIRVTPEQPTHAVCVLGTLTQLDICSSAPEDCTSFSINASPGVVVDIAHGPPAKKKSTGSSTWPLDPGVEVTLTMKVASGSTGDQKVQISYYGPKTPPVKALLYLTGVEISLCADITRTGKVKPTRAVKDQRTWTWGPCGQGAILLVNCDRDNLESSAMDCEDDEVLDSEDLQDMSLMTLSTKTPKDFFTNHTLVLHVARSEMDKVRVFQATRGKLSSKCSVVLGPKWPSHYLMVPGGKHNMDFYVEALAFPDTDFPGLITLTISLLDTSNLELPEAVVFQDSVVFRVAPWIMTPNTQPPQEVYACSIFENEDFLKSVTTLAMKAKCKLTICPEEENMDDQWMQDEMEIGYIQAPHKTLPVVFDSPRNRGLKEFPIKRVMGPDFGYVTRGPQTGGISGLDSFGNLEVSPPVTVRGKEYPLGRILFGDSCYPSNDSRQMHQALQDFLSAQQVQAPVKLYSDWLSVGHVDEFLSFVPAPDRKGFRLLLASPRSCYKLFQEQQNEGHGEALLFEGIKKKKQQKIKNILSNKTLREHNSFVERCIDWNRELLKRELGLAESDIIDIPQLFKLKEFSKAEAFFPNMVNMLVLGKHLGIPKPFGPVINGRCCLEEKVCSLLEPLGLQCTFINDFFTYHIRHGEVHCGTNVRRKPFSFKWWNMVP

Row | SMILES | IC50 [µM]
1 | COc1cc(C(=O)N2C[C@H](N)C[C@@H](F)C2)cc2sc(-c3cc4ccc(N5CCC(OC)CC5)nc4n3CC3CC3)c(C)c12 [Example 142, ((3R,5R)-3-Amino-5-fluoropiperidin-1-yl)(2-(1-(cyclopropylmethyl)-6-(4-methoxypiperidin-1-yl)-1H-pyrrolo[2,3-b]pyridin-2-yl)-4-methoxy-3-methylbenzo[b]thiophen-6-yl)methanone] | 0.642
2 | COc1cc(C(=O)N2C[C@H](N)C[C@@H](F)C2)cc2sc(-c3cc4ccc(-c5ccc6c(c5)C(=O)NC6)cc4n3CC3CC3)c(C)c12 [Example 143, 6-(2-(6-((3R,5R)-3-Amino-5-fluoropiperidine-1-carbonyl)-4-methoxy-3-methylbenzo[b]thiophen-2-yl)-1-(cyclopropylmethyl)-1H-indol-6-yl)isoindolin-1-one] | 0.588
3 | COc1cc(C(=O)N2CC3CCC2[C@@H]3N)cc2oc(-c3cc4cccnc4n3CC3CC3)c(C)c12 (stereo partly drawn) [Example 145, ((7R)-7-Amino-2-azabicyclo[2.2.1]heptan-2-yl)(2-(1-(cyclopropylmethyl)-1H-pyrrolo[2,3-b]pyridin-2-yl)-4-methoxy-3-methylbenzofuran-6-yl)methanone] | 0.285
4 | COc1cc(C(=O)N2CC3CCC2[C@@H]3N)cc2oc(-c3cc4ccc(Cl)nc4n3CC3CC3)c(C)c12 (stereo partly drawn) [Example 146, ((7R)-7-Amino-2-azabicyclo[2.2.1]heptan-2-yl)(2-(6-chloro-1-(cyclopropylmethyl)-1H-pyrrolo[2,3-b]pyridin-2-yl)-4-methoxy-3-methylbenzofuran-6-yl)methanone] | 1.21
5 | COc1cc(C(=O)N2C[C@H](N)C[C@@H](F)C2)cc2oc(-c3cc4cccnc4n3CC3CC3)c(C)c12 [Example 147, ((3R,5R)-3-Amino-5-fluoropiperidin-1-yl)(2-(1-(cyclopropylmethyl)-1H-pyrrolo[2,3-b]pyridin-2-yl)-4-methoxy-3-methylbenzofuran-6-yl)methanone] | 0.954
6 | COc1cc(C(=O)N2CC3CCC2[C@@H]3N)cc2oc(-c3cc4ccccc4n3CC3CC3)c(C)c12 (stereo partly drawn) [Example 148, ((7R)-7-Amino-2-azabicyclo[2.2.1]heptan-2-yl)(2-(1-(cyclopropylmethyl)-1H-indol-2-yl)-4-methoxy-3-methylbenzofuran-6-yl)methanone] | 0.442
7 | COc1cc(C(=O)N2CC3CCC2[C@@H]3N)cc2oc(-c3cc4ccc(C)cc4n3CC3CC3)c(C)c12 (stereo partly drawn) [Example 151, ((7R)-7-Amino-2-azabicyclo[2.2.1]heptan-2-yl)(2-(1-(cyclopropylmethyl)-6-methyl-1H-indol-2-yl)-4-methoxy-3-methylbenzofuran-6-yl)methanone] | 0.325
8 | COc1cc(C(=O)N2CC3CCC2[C@@H]3N)cc2oc(-c3cc4ccc(-c5ccc(C(N)=O)c(Cl)c5)cc4n3CC3CC3)c(C)c12 (stereo partly drawn) [Example 153, 4-(2-(6-((7R)-7-Amino-2-azabicyclo[2.2.1]heptane-2-carbonyl)-4-methoxy-3-methylbenzofuran-2-yl)-1-(cyclopropylmethyl)-1H-indol-6-yl)-2-chlorobenzamide] | 0.628
9 | COc1cc(C(=O)N2CC3CCC2[C@@H]3N)cc2oc(-c3cc4ccc(-c5ccc(O)c(F)c5)cc4n3CC3CC3)c(C)c12 (stereo partly drawn) [Example 154, ((7R)-7-Amino-2-azabicyclo[2.2.1]heptan-2-yl)(2-(1-(cyclopropylmethyl)-6-(3-fluoro-4-hydroxyphenyl)-1H-indol-2-yl)-4-methoxy-3-methylbenzofuran-6-yl)methanone] | 1.01
10 | COc1cc(C(=O)N2CC3CCC2[C@@H]3N)cc2oc(-c3cc4ccc(N5CCC(OC)CC5)cc4n3CC3CC3)c(C)c12 (stereo partly drawn) [Example 159, ((7R)-7-Amino-2-azabicyclo[2.2.1]heptan-2-yl)(2-(1-(cyclopropylmethyl)-6-(4-methoxypiperidin-1-yl)-1H-indol-2-yl)-4-methoxy-3-methylbenzofuran-6-yl)methanone] | 1.21
11 | COc1cc(C(=O)N2C[C@H](N)C[C@@H](F)C2)cc2oc(-c3cc4ccccc4n3CC3CC3)c(C)c12 [Example 161, ((3R,5R)-3-Amino-5-fluoropiperidin-1-yl)(2-(1-(cyclopropylmethyl)-1H-indol-2-yl)-4-methoxy-3-methylbenzofuran-6-yl)methanone] | 0.487
12 | COc1cc(C(=O)N2C[C@H](N)C[C@@H](F)C2)cc2oc(-c3cc4ccc(-c5ccc(C(N)=O)c(Cl)c5)cc4n3CC3CC3)c(C)c12 [Example 162, 4-(2-(6-((3R,5R)-3-Amino-5-fluoropiperidine-1-carbonyl)-4-methoxy-3-methylbenzofuran-2-yl)-1-(cyclopropylmethyl)-1H-indol-6-yl)-2-chlorobenzamide] | 2.29
13 | COc1cc(C(=O)N2C[C@H](N)C[C@@H](F)C2)cc2oc(-c3cc4ccc(-c5cccc(O)c5F)cc4n3CC3CC3)c(C)c12 [Example 163, ((3R,5R)-3-Amino-5-fluoropiperidin-1-yl)(2-(1-(cyclopropylmethyl)-6-(2-fluoro-3-hydroxyphenyl)-1H-indol-2-yl)-4-methoxy-3-methylbenzofuran-6-yl)methanone] | 5.59
14 | Cc1c(-c2cc3cccnc3n2CC2CC2)oc2cc(C(=O)N3CC4CCC3[C@@H]4N)ccc12 (stereo partly drawn) [Example 164, ((7R)-7-Amino-2-azabicyclo[2.2.1]heptan-2-yl)(2-(1-(cyclopropylmethyl)-1H-pyrrolo[2,3-b]pyridin-2-yl)-3-methylbenzofuran-6-yl)methanone] | 0.625
15 | Cc1c(-c2cc3ccc(Cl)nc3n2CC2CC2)oc2cc(C(=O)N3CC4CCC3[C@@H]4N)ccc12 (stereo partly drawn) [Example 165, ((7R)-7-Amino-2-azabicyclo[2.2.1]heptan-2-yl)(2-(6-chloro-1-(cyclopropylmethyl)-1H-pyrrolo[2,3-b]pyridin-2-yl)-3-methylbenzofuran-6-yl)methanone] | 0.198

Now those with a lower IC50, led by results:

Row | IC50 [µM] | SMILES
16 | 0.192 | COc1cc(C(=O)N2CC3CCC2[C@@H]3N)cc2oc(-c3cc4ccc(-c5ccc(C(N)=O)c(F)c5)cc4n3CC3CC3)c(C)c12 (stereo partly drawn) [Example 152, 4-(2-(6-((7R)-7-Amino-2-azabicyclo[2.2.1]heptane-2-carbonyl)-4-methoxy-3-methylbenzofuran-2-yl)-1-(cyclopropylmethyl)-1H-indol-6-yl)-2-fluorobenzamide]
17 | 0.187 | COc1cc(C(=O)N2CC3CCC2[C@@H]3N)cc2oc(-c3cc4ccc(-c5ccc6c(c5)C(=O)NC6)cc4n3CC3CC3)c(C)c12 (stereo partly drawn) [Example 150, 6-(2-(6-((7R)-7-Amino-2-azabicyclo[2.2.1]-heptane-2-carbonyl)-4-methoxy-3-methylbenzofuran-2-yl)-1-(cyclopropylmethyl)-1H-indol-6-yl)isoindolin-1-one]
18 | 0.179 | COc1cc(C(=O)N2C[C@H](N)C[C@@H](F)C2)cc2sc(-c3cc4ccc(-c5ccc(C(N)=O)c(F)c5)nc4n3CC3CC3)c(C)c12 [Example 141, 4-(2-(6-((3R,5R)-3-Amino-5-fluoropiperidine-1-carbonyl)-4-methoxy-3-methylbenzo[b]thiophen-2-yl)-1-(cyclopropylmethyl)-1H-pyrrolo[2,3-b]pyridin-6-yl)-2-fluorobenzamide]
19 | 0.173 | COc1cc(C(=O)N2CC3CCC2[C@@H]3N)cc2oc(-c3cc4ccc(C5CC5)cc4n3CC3CC3)c(C)c12 (stereo partly drawn) [Example 156, ((7R)-7-Amino-2-azabicyclo[2.2.1]heptan-2-yl)(2-(6-cyclopropyl-1-(cyclopropylmethyl)-1H-indol-2-yl)-4-methoxy-3-methylbenzofuran-6-yl)methanone]
20 | 0.164 | COc1cc(C(=O)N2C[C@H](N)C[C@@H](F)C2)cc2sc(-c3cc4ccc(-c5ccc6c(c5)CNC6=O)cc4n3CC3CC3)c(C)c12 [Example 144, 5-(2-(6-((3R,5R)-3-Amino-5-fluoropiperidine-1-carbonyl)-4-methoxy-3-methylbenzo[b]thiophen-2-yl)-1-(cyclopropylmethyl)-1H-indol-6-yl)isoindolin-1-one]
21 | 0.111 | COc1cc(C(=O)N2CC3CCC2[C@@H]3N)cc2oc(-c3cc4ccc(-c5ccc6c(c5)CNC6=O)cc4n3CC3CC3)c(C)c12 (stereo partly drawn) [Example 149, 5-(2-(6-((7R)-7-Amino-2-azabicyclo[2.2.1]heptane-2-carbonyl)-4-methoxy-3-methylbenzofuran-2-yl)-1-(cyclopropylmethyl)-1H-indol-6-yl)isoindolin-1-one]
22 | 0.095 | COc1cc(C(=O)N2CC3CCC2[C@@H]3N)cc2oc(-c3cc4ccc(-c5ccn6c(C)nnc6c5)cc4n3CC3CC3)c(C)c12 (stereo partly drawn) [Example 157, ((7R)-7-Amino-2-azabicyclo[2.2.1]heptan-2-yl)(2-(1-(cyclopropylmethyl)-6-(3-methyl-[1,2,4]triazolo[4,3-a]pyridin-7-yl)-1H-indol-2-yl)-4-methoxy-3-methylbenzofuran-6-yl)methanone]
23 | 0.056 | Cc1c(-c2cc3ccc(-c4ccc5c(c4)C(=O)NC5)nc3n2CC2CC2)oc2cc(C(=O)N3CC4CCC3[C@@H]4N)ccc12 (stereo partly drawn) [Example 166, 6-(2-(6-((7R)-7-Amino-2-azabicyclo[2.2.1]heptane-2-carbonyl)-3-methylbenzofuran-2-yl)-1-(cyclopropylmethyl)-1H-pyrrolo[2,3-b]pyridin-6-yl)isoindolin-1-one]
24 | 0.048 | COc1cc(C(=O)N2CC3CCC2[C@@H]3N)cc2oc(-c3cc4ccc(N5CCC(N)CC5)cc4n3CC3CC3)c(C)c12 (stereo partly drawn) [Example 160, ((7R)-7-Amino-2-azabicyclo[2.2.1]heptan-2-yl)(2-(6-(4-aminopiperidin-1-yl)-1-(cyclopropylmethyl)-1H-indol-2-yl)-4-methoxy-3-methylbenzofuran-6-yl)methanone]
25 | 0.047 | Cc1c(-c2cc3ccc(-c4ccc5c(c4)CNC5=O)nc3n2CC2CC2)oc2cc(C(=O)N3CC4CCC3[C@@H]4N)ccc12 (stereo partly drawn) [Example 168, 5-(2-(6-((7R)-7-Amino-2-azabicyclo[2.2.1]heptane-2-carbonyl)-3-methylbenzofuran-2-yl)-1-(cyclopropylmethyl)-1H-pyrrolo[2,3-b]pyridin-6-yl)isoindolin-1-one]
26 | 0.045 | Cc1c(-c2cc3ccc(-c4ccn5c(C)nnc5c4)nc3n2CC2CC2)oc2cc(C(=O)N3CC4CCC3[C@@H]4N)ccc12 (some centres unmarked) [Example 167]

Source: patent US12473304B2, “Heterocyclic PAD4 inhibitors” (BRISTOL-MYERS SQUIBB COMPANY, priority 2020, dated 2025)
